In US20050074810A1, “Method for non-invasilvely determining the relative levels of two biological substances” (priority 2001, published 2005):
Read-outs that look alike come from different tables or passages of the source.

Tests used:
[1] = In vitro reverse iontophoretic extraction of glucose and sodium (Example 5); type: in vitro ADME, pig; settings: subdermal glucose 10 mM
Experimental: The anode was placed in the sub-dermal, “donor” chamber, which contained a physiological pH 7.4 buffer (25 mM Tris/TrisHCl+133 mM NaCl) to which the analyte glucose was added at a concentration of 10 mM.
To facilitate the analytical chemistry, the donor solutions were spiked with tritiated glucose.
(§1) The cathodal (collection) chamber, which contacted the outer surface of the skin, contained a 25 mM Tris/TrisHCl buffer at pH 7.4.
The experimental design was identical to that in FIG. 11, with the exception that glucose spiked with tritiated glucose replaced mannitol spiked with ^14C-labeled mannitol.
During this period, the entire content of the cathode solution was withdrawn every 60 minutes and the chamber was refilled with fresh buffer.

[2] = In vitro reverse iontophoretic extraction of mannitol and sodium (Example 3, second experiment)
Experimental: In a second experiment, performed under identical conditions to the first (see FIG. 11), mannitol concentration was 5 mM for the first three hours of experiment, it was then reduced to 3 mM for a subsequent period of one hour and then increased to 10 mM for a subsequent period of one hour.
(§2) During the first 3-hour period, the entire content of the cathode solution was withdrawn every 60 minutes and the chamber was refilled with fresh buffer.
During the second 1-hour period, the 5 mM mannitol donor solution was replaced with 3 mM mannitol, and the cathodal chamber was then sampled every 30 minutes.
During the third 1-hour period, the 3 mM mannitol donor solution was replaced with 10 mM mannitol, and the cathodal chamber was then sampled every 30 minutes.

[3] = in vivo, 4 mA for 5 minutes, 4.5 cm^2, lithium nitrate electrolyte; cited from earlier work
[4] = In vitro reverse iontophoretic extraction of mannitol and sodium (Example 3, first experiment)
Experimental: The anode was placed in the sub-dermal, “donor” chamber, which contained a physiological pH 7.4 buffer (25 mM Tris/TrisHCl+133 mM NaCl) to which the analyte mannitol was added.
In a first experiment, mannitol concentration was 5 mM for the first three hours of experiment and was then increased to 10 mM for a subsequent period of three hours.
(§3) To facilitate the analytical chemistry, the donor solutions were spiked with ^14C-labeled mannitol.
The cathodal (collection) chamber, which contacted the outer surface of the skin contained a 25 mM Tris/TrisHCl buffer at pH 7.4.
as §2
During the second 3-hour period, the 5 mM mannitol donor solution was replaced with 10 mM mannitol, and the cathodal chamber was then sampled every 30 minutes.

[5] = In vitro reverse iontophoretic extraction of mannitol and sodium with varied sodium level (Example 4)
Experimental: The anode was placed in the sub-dermal, “donor” chamber, which contained a physiological pH 7.4 buffer (25 mM Tris/TrisHCl+4 mM KCl).
Both the concentration of the analyte of interest and the internal standard were modified during the experiment.
as §3, §1, §2
During the final 1-hour period, the donor solution was replaced with 5 mM mannitol/ 133 mM NaCl, and the cathodal chamber was then sampled every 30 minutes.

[6] = subdermal lactate 1.74 mM, ammonium 1.56 mM
Experimental: Experiments were performed in specially-designed iontophoresis diffusion cells (Laboratory Glass Apparatus, Berkeley, Calif., USA) as represented in FIG. 7.
The anodal and cathodal chambers contacted the outer surface of the skin and contained the receptor (collection) media, respectively, 80 mM Tris/TrisHCl and 25 mM Tris+34 mM Mops (both buffered to pH 7.4).
Dermatomed pig-ear skin was clamped between the two halves of the iontophoresis cell and each chamber was filled with the appropriate solution.
The sub-dermal chamber was filled with the “donor solution which was perfused continuously at 2-3 mL/hour by means of a peristaltic pump.
A current of 0.4 mA (0.5 mA/cm^2) was passed for a total of 5 hours between the Ag/AgCl electrodes which were inserted into the anodal and cathodal chambers.
Every hour, the entire anode and cathode solutions were withdrawn and the chambers were refilled with fresh buffer.

[7] = human volunteer, 0.3 mA/cm^2, 5.5 hours, 15 min samples, food ingested
Experimental: The distance between the chambers was approximately 8 cm.
The anode was positioned in one of the cells, which was filled with a solution containing a 10 mM Tris buffer pH 8.5+100 mM NaCl.
The other (collection) chamber contained the cathode submerged in a 10 mM Tris buffer at pH 8.5.
The two electrodes were connected to a power supply (Phoresor II Auto, lomed, USA) and a current of 0.6 mA (0.3 mA/cm^2) was passed between them for a total of 5.5 hours.
The entire contents of the cathode solution were withdrawn every 15 minutes and the chamber was then refilled with fresh buffer.
Glucose in each iontophoretic sample was analyzed by high-performance anion-exchange chromatography with pulsed amperometric detection.

[8] = subdermal mannitol 5 mM, 60 min
[9] = subdermal mannitol 5 mM, 120 min
[10] = subdermal mannitol 5 mM, 180 min
[11] = subdermal mannitol 10 mM, 270 min
[12] = subdermal mannitol 10 mM, 300 min

[Na+] [Na^+, sodium]
Sodium^+ flux ([1]; 60 min): 8.7 ± 0.6 μmol · h^−1 · cm^−2 | Sodium^+ flux ([1]; 120 min): 9.8 ± 0.4 μmol · h^−1 · cm^−2 | Sodium^+ flux ([1]; 180 min): 10.1 ± 0.3 μmol · h^−1 · cm^−2 | Sodium^+ flux ([1]; 240 min): 10.0 ± 0.3 μmol · h^−1 · cm^−2 | Sodium^+ flux ([1]; 300 min): 10.2 ± 0.3 μmol · h^−1 · cm^−2 | Sodium^+ flux ([1]; 360 min): 10.2 ± 0.3 μmol · h^−1 · cm^−2 | Sodium^+ flux ([2]; subdermal mannitol 3 mM, 210 min): 10.9 ± 0.7 μmol · h^−1 · cm^−2 | Sodium^+ flux ([2]; subdermal mannitol 3 mM, 240 min): 9.7 ± 0.5 μmol · h^−1 · cm^−2 | Sodium^+ flux [2, 8]: 8.8 ± 0.7 μmol · h^−1 · cm^−2 | Sodium^+ flux [2, 9]: 10.2 ± 0.7 μmol · h^−1 · cm^−2 | Sodium^+ flux [2, 10]: 10.4 ± 0.7 μmol · h^−1 · cm^−2 | Sodium^+ flux [2, 11]: 9.4 ± 0.6 μmol · h^−1 · cm^−2 | Sodium^+ flux [2, 12]: 9.3 ± 0.4 μmol · h^−1 · cm^−2 | Concentration in the cathode chamber after current passage [3]: ~35 μEq/L | Sodium^+ flux [4, 8]: 7.9 ± 0.5 μmol · h^−1 · cm^−2 | Sodium^+ flux [4, 9]: 9.7 ± 0.6 μmol · h^−1 · cm^−2 | Sodium^+ flux [4, 10]: 10.1 ± 0.4 μmol · h^−1 · cm^−2 | Sodium^+ flux ([4]; subdermal mannitol 10 mM, 210 min): 10.3 ± 0.5 μmol · h^−1 · cm^−2 | Sodium^+ flux ([4]; subdermal mannitol 10 mM, 240 min): 10.4 ± 0.6 μmol · h^−1 · cm^−2 | Sodium^+ flux [4, 11]: 10.3 ± 0.4 μmol · h^−1 · cm^−2 | Sodium^+ flux [4, 12]: 10.6 ± 0.3 μmol · h^−1 · cm^−2 | Sodium^+ flux ([4]; subdermal mannitol 10 mM, 330 min): 10.7 ± 0.3 μmol · h^−1 · cm^−2 | Sodium^+ flux ([4]; subdermal mannitol 10 mM, 360 min): 10.5 ± 0.6 μmol · h^−1 · cm^−2 | Sodium^+ flux ([5]; subdermal [Mannitol]/[Na^+] 5/133 mM (last hour), 330 min): 11.2 ± 1.2 μmol · h^−1 · cm^−2 | Sodium^+ flux ([5]; subdermal [Mannitol]/[Na^+] 5/133 mM (last hour), 360 min): 11.4 ± 0.3 μmol · h^−1 · cm^−2 | Sodium^+ flux ([5]; subdermal [Mannitol]/[Na^+] 5/133 mM, 60 min): 8.4 ± 0.8 μmol · h^−1 · cm^−2 | Sodium^+ flux ([5]; subdermal [Mannitol]/[Na^+] 5/133 mM, 120 min): 10.7 ± 0.4 μmol · h^−1 · cm^−2 | Sodium^+ flux ([5]; subdermal [Mannitol]/[Na^+] 5/133 mM, 180 min): 11.0 ± 0.3 μmol · h^−1 · cm^−2 | Deduced transport number (×100) ([6]; 3 h): 67.72 ± 7.98 ×100 | Deduced transport number (×100) ([6]; 5 h): 72.07 ± 1.07 ×100 | Iontophoretically extracted flux over the experiment [7]: remained effectively constant
